According to US20030049600A1, “STEALTH VIRUS DETECTION IN THE CHRONIC FATIGUE SYNDROME” (priority 1991, published 2003):

Test system: fibroblasts
Assay: Toxic effect on cultured fibroblasts, mimic of stealth virus culture toxicity
Assay type: cell-based
Conditions: 5 nM
Text: A lack of regular refeeding of the cultures can result in a tendency for the CPE to abort and not to progress. This effect is not seen with CMV infected cultures. In unfed stealth virus cultures and even with regular refeeding, one can observe a toxic effect on many of the remaining cells. Culture cells appear to lose a degree of vitality and become duller in appearance compared to control cultures. The fibroblasts can assume somewhat of a pavement appearance, instead of the elongated shape.

Question: For `C=C1[C@@H](O)[C@@H]2O[C@]3(CC[C@H](/C=C/[C@@H](C)[C@@H]4CC(C)=C[C@@]5(O[C@H](C[C@@](C)(O)C(=O)O)CC[C@H]5O)O4)O3)CC[C@H]2O[C@@H]1[C@@H](O)C[C@H](C)[C@H]1O[C@@]2(CCCCO2)CC[C@H]1C` [okadaic acid], which “toxic effect on culture cells (loss of vitality, duller, pavement appearance)” value is on record?
Answer: Its value is “Some of these changes can be mimicked”.
